Structures are written as SMILES.

One assay has as its system Alopecurus myosuroides. Briefly: Pre-emergence herbicidal effect against ALOMY. Type of assay: in vivo. The settings on record: 1280 g/ha, visual score after 3 weeks, 100% = plants have died, 0% = like control plants. The gist of the method:
(§1)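 Visual scoring of plant damage, in percent relative to untreated controls, was done 3 weeks after treatment. Compounds, as wettable powders or emulsion concentrates, were applied to covering soil over freshly sown seeds at a water rate of 600 to 800 L/ha with 0.2% wetting agent.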
Consider `CCOC(=O)CSc1nn(-c2ccc(F)cc2F)c(-c2ccc(F)cc2)c1Br` [Example I-016], for which the “Pre-emergence action against ALOMY” value worked out at 90%.
As for `COC(=O)CNC(=O)CSc1nn(-c2ccccc2F)c(-c2cccnc2)c1Br` [VII-007], the “Pre-emergence action against ALOMY” value worked out at 90%.

A further assay has as its system Digitaria sanguinalis. Briefly: Pre-emergence herbicidal effect against DIGSA. The settings on record: 1280 g/ha, visual score after 3 weeks, 100% = plants have died, 0% = like control plants. It is filed as in vivo. In outline: as §1
For the molecule `CCOC(=O)CSc1nn(-c2ccc(F)cc2F)c(-c2ccc(F)cc2)c1Br` [Example I-016], the “Pre-emergence action against DIGSA” value is 100%.

In the next assay the test system is Echinochloa crus-galli. Briefly: Pre-emergence herbicidal effect against ECHCG. Type of assay: in vivo. The settings on record: 1280 g/ha, visual score after 3 weeks, 100% = plants have died, 0% = like control plants. The gist of the method: as §1
As for `CCOC(=O)CSc1nn(-c2ccc(F)cc2F)c(-c2ccc(F)cc2)c1Br` [Example I-016], the “Pre-emergence action against ECHCG” value is 100%.
Same read-out and setting: for `COC(=O)CNC(=O)CSc1nn(-c2ccccc2F)c(-c2cccnc2)c1Br` [VII-007] the value was 100%.

In a further assay the test system is Lolium rigidum. Briefly: Pre-emergence herbicidal effect against LOLRI. The conditions noted are these: 1280 g/ha, visual score after 3 weeks, 100% = plants have died, 0% = like control plants. It is filed as in vivo. The gist of the method: as §1
For `CCOC(=O)CSc1nn(-c2ccc(F)cc2F)c(-c2ccc(F)cc2)c1Br` [Example I-016], the “Pre-emergence action against LOLRI” value is 90%.

In the next assay the test system is Poa annua. Briefly: Pre-emergence herbicidal effect against POAAN. Type of assay: in vivo. The settings on record: 1280 g/ha, visual score after 3 weeks, 100% = plants have died, 0% = like control plants. In outline:
as §1
For `CCOC(=O)CSc1nn(-c2ccc(F)cc2F)c(-c2ccc(F)cc2)c1Br` [Example I-016], the “Pre-emergence action against POAAN” value amounted to 100%.
Take `COC(=O)CNC(=O)CSc1nn(-c2ccccc2F)c(-c2cccnc2)c1Br` [VII-007]: the “Pre-emergence action against POAAN” value amounted to 100%.

Another assay concerns Setaria viridis. Briefly: Pre-emergence herbicidal effect against SETVI. The settings on record: 1280 g/ha, visual score after 3 weeks, 100% = plants have died, 0% = like control plants. Type of assay: in vivo. The gist of the method:
as §1
Consider `CCOC(=O)CSc1nn(-c2ccc(F)cc2F)c(-c2ccc(F)cc2)c1Br` [Example I-016], for which the “Pre-emergence action against SETVI” value is given as 100%.
Take `COC(=O)CNC(=O)CSc1nn(-c2ccccc2F)c(-c2cccnc2)c1Br` [VII-007]: the “Pre-emergence action against SETVI” value is 100%.

The test system of a further assay is Bassia scoparia. Description: Pre-emergence herbicidal effect against KCHSC. Type of assay: in vivo. The conditions noted are these: 1280 g/ha, visual score after 3 weeks, 100% = plants have died, 0% = like control plants. The text has this: 1. Pre-emergence herbicidal effect and crop plant compatibility Seeds of monocotyledonous and dicotyledonous weed plants and crop plants are laid out in sandy loam soil in wood-fibre pots and covered with soil. The compounds of the invention, formulated in the form of wettable powders (WP) or as emulsion concentrates (EC), are then applied to the surface of the covering soil as aqueous suspension or emulsion at a water application rate equating to 600 to 800 L/ha with addition of 0.2% wetting agent. After the treatment, the pots are placed in a greenhouse and kept under good growth conditions for the trial plants. The damage to the test plants is scored visually after a test period of 3 weeks by comparison with untreated controls (herbicidal activity in percent (%): 100% activity=the plants have died, 0% activity=like control plants). [table]
Consider `CCOC(=O)CSc1nn(-c2ccc(F)cc2F)c(-c2ccc(F)cc2)c1Br` [Example I-016], for which the “Pre-emergence action against KCHSC” value was 100%.
On the same count and under the same terms, under `COC(=O)CNC(=O)CSc1nn(-c2ccccc2F)c(-c2cccnc2)c1Br` [VII-007] stands 90%.

The subject of a further assay is Tripleurospermum inodorum. Description: Pre-emergence herbicidal effect against MATIN. It is filed as in vivo. The settings on record: 1280 g/ha, visual score after 3 weeks, 100% = plants have died, 0% = like control plants. The gist of the method: as §1
Consider `CCOC(=O)CSc1nn(-c2ccc(F)cc2F)c(-c2ccc(F)cc2)c1Br` [Example I-016], for which the “Pre-emergence action against MATIN” value turned out to be 100%.
The same measure, in the same setting: under `COC(=O)CNC(=O)CSc1nn(-c2ccccc2F)c(-c2cccnc2)c1Br` [VII-007] stands 90%.

The next assay concerns Stellaria media. Briefly: Pre-emergence herbicidal effect against STEME. It is filed as in vivo. The settings on record: 1280 g/ha, visual score after 3 weeks, 100% = plants have died, 0% = like control plants. The gist of the method: as §1
`CCOC(=O)CSc1nn(-c2ccc(F)cc2F)c(-c2ccc(F)cc2)c1Br` [Example I-016]: the “Pre-emergence action against STEME” value turned out to be 100%.
For the molecule `COC(=O)CNC(=O)CSc1nn(-c2ccccc2F)c(-c2cccnc2)c1Br` [VII-007], the “Pre-emergence action against STEME” value came out at 90%.

In the next assay the test system is Veronica persica. Briefly: Pre-emergence herbicidal effect against VERPE. The settings on record: 1280 g/ha, visual score after 3 weeks, 100% = plants have died, 0% = like control plants. It is filed as in vivo. The gist of the method:
as §1
Regarding `CCOC(=O)CSc1nn(-c2ccc(F)cc2F)c(-c2ccc(F)cc2)c1Br` [Example I-016], the “Pre-emergence action against VERPE” value is 100%.
Regarding `COC(=O)CNC(=O)CSc1nn(-c2ccccc2F)c(-c2cccnc2)c1Br` [VII-007], the “Pre-emergence action against VERPE” value was 90%.

The next assay has as its system Alopecurus myosuroides. Briefly: Post-emergence herbicidal effect against ALOMY. It is filed as in vivo. The settings on record: 1280 g/ha, visual score after about 3 weeks, 100% = plants have died, 0% = like control plants. The gist of the method:
(§2)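 Greenhouse test, sandy loam soil; one-leaf-stage plants sprayed 2–3 wk after sowing. Percent action rated by eye ~3 wk later against untreated plants.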
Consider `CCOC(=O)CSc1nn(-c2ccc(F)cc2F)c(-c2ccc(F)cc2)c1Br` [Example I-016], for which the “Post-emergence action against ALOMY” value is reported as 100%.
Turning to `COC(=O)CNC(=O)CSc1nn(-c2ccccc2F)c(-c2cccnc2)c1Br` [VII-007], the “Post-emergence action against ALOMY” value is listed as 90%.

The subject of another assay is Digitaria sanguinalis. Briefly: Post-emergence herbicidal effect against DIGSA. Type of assay: in vivo. The conditions noted are these: 1280 g/ha, visual score after about 3 weeks, 100% = plants have died, 0% = like control plants. The gist of the method: as §2
For the molecule `CCOC(=O)CSc1nn(-c2ccc(F)cc2F)c(-c2ccc(F)cc2)c1Br` [Example I-016], the “Post-emergence action against DIGSA” value is listed as 90%.

The next assay deals with Echinochloa crus-galli. Briefly: Post-emergence herbicidal effect against ECHCG. Type of assay: in vivo. The conditions noted are these: 1280 g/ha, visual score after about 3 weeks, 100% = plants have died, 0% = like control plants. The gist of the method: as §2
On to `CCOC(=O)CSc1nn(-c2ccc(F)cc2F)c(-c2ccc(F)cc2)c1Br` [Example I-016], for which the “Post-emergence action against ECHCG” value was found to be 90%.
Consider `COC(=O)CNC(=O)CSc1nn(-c2ccccc2F)c(-c2cccnc2)c1Br` [VII-007], for which the “Post-emergence action against ECHCG” value is reported as 90%.

Another assay relates to Poa annua. Description: Post-emergence herbicidal effect against POAAN. The settings on record: 1280 g/ha, visual assessment about 3 weeks after treatment, 100% = plants have died, 0% = like control plants. It is filed as in vivo. In outline:
as §2
With `CCOC(=O)CSc1nn(-c2ccc(F)cc2F)c(-c2ccc(F)cc2)c1Br` [Example I-016], the “Post-emergence action against POAAN” value is listed as 90%.
Regarding `COC(=O)CNC(=O)CSc1nn(-c2ccccc2F)c(-c2cccnc2)c1Br` [VII-007], the “Post-emergence action against POAAN” value was 90%.

A further assay relates to Setaria viridis. Description: Post-emergence herbicidal effect against SETVI. It is filed as in vivo. The settings on record: 1280 g/ha, visual assessment about 3 weeks after treatment, 100% = plants have died, 0% = like control plants. In outline:
as §2
`COC(=O)CNC(=O)CSc1nn(-c2ccccc2F)c(-c2cccnc2)c1Br` [VII-007]: the “Post-emergence action against SETVI” value stood at 90%.

Another assay concerns Abutylon threophrasti. Description: Post-emergence herbicidal effect against ABUTH. It is filed as in vivo. The settings on record: 1280 g/ha, visual assessment about 3 weeks after treatment, 100% = plants have died, 0% = like control plants. In outline: as §2
As to `COC(=O)CNC(=O)CSc1nn(-c2ccccc2F)c(-c2cccnc2)c1Br` [VII-007], the “Post-emergence action against ABUTH” value was 90%.

For the next assay, the system named is Bassia scoparia. Description: Post-emergence herbicidal effect against KCHSC. The conditions noted are these: 1280 g/ha, visual assessment about 3 weeks after treatment, 100% = plants have died, 0% = like control plants. It is filed as in vivo. In outline: as §2
As for `CCOC(=O)CSc1nn(-c2ccc(F)cc2F)c(-c2ccc(F)cc2)c1Br` [Example I-016], the “Post-emergence action against KCHSC” value is 90%.
Still for that read-out and setting: under `COC(=O)CNC(=O)CSc1nn(-c2ccccc2F)c(-c2cccnc2)c1Br` [VII-007] stands 90%.

The next assay concerns Tripleurospermum inodorum. Briefly: Post-emergence herbicidal effect against MATIN. Type of assay: in vivo. The conditions noted are these: 1280 g/ha, visual assessment about 3 weeks after treatment, 100% = plants have died, 0% = like control plants. In outline:
as §2
For `CCOC(=O)CSc1nn(-c2ccc(F)cc2F)c(-c2ccc(F)cc2)c1Br` [Example I-016], the “Post-emergence action against MATIN” value is reported as 90%.
In the case of `COC(=O)CNC(=O)CSc1nn(-c2ccccc2F)c(-c2cccnc2)c1Br` [VII-007], the “Post-emergence action against MATIN” value was 90%.

The next assay has as its system Stellaria media. Description: Post-emergence herbicidal effect against STEME. Type of assay: in vivo. The conditions noted are these: 1280 g/ha, visual assessment about 3 weeks after treatment, 100% = plants have died, 0% = like control plants. In outline:
as §2
Consider `CCOC(=O)CSc1nn(-c2ccc(F)cc2F)c(-c2ccc(F)cc2)c1Br` [Example I-016], for which the “Post-emergence action against STEME” value is reported as 90%.
For `COC(=O)CNC(=O)CSc1nn(-c2ccccc2F)c(-c2cccnc2)c1Br` [VII-007], the “Post-emergence action against STEME” value turned out to be 90%.

The test system of another assay is Veronica persica. Description: Post-emergence herbicidal effect against VERPE. It is filed as in vivo. The settings on record: 1280 g/ha, visual assessment about 3 weeks after treatment, 100% = plants have died, 0% = like control plants. The gist of the method:
as §2
As to `CCOC(=O)CSc1nn(-c2ccc(F)cc2F)c(-c2ccc(F)cc2)c1Br` [Example I-016], the “Post-emergence action against VERPE” value was 90%.
Regarding `COC(=O)CNC(=O)CSc1nn(-c2ccccc2F)c(-c2cccnc2)c1Br` [VII-007], the “Post-emergence action against VERPE” value came to 90%.

The values above are taken from patent US20230126893A1, “[(1,4,5-TRISUBSTITUTED-1H-PYRAZOL-3-YL)SULFANYL]ACETIC ACID DERIVATIVES, SALTS THEREOF, AND USE THEREOF AS ACTIVE HERBICIDAL INGREDIENTS” (BAYER AKTIENGESELLSCHAFT, priority 2020, published 2023).
